Assay [1] deals with T1, UspC (Mtb-UspC, Rv2318), solute-binding protein of the UspABC transporter (Mycobacterium tuberculosis, UniProt P71894).
T1 construct: UspCNt, N-terminally truncated, residues 31–441, His6-tagged
Briefly: STD-NMR ([…] ligand, […] protein) and thermal shift.

Assay [2] deals with T1, UspC (Mtb-UspC, Rv2318), solute-binding protein of the UspABC transporter. Briefly: thermal shift saturation binding (Kd,app), Tm shift […]°C at […].

T1 sequence (P71894 entry or part of it): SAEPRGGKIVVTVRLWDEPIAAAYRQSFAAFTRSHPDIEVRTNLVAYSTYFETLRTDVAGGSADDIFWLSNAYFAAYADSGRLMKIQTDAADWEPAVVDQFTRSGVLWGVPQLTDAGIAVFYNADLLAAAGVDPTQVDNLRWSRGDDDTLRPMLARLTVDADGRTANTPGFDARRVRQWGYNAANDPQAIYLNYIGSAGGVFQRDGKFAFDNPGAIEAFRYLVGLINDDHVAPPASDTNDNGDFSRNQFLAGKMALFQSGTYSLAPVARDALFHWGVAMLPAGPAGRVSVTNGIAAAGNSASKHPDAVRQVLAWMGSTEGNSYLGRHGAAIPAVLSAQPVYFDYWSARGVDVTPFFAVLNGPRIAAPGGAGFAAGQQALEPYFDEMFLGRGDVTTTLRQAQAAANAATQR

Take `N[C@H]1C(O)O[C@H](CO)[C@@H](O)[C@@H]1O` (stereo partly drawn) [D-glucosamine]: the “STD-NMR (50 mM ligand, 30 μM protein) and thermal shift” value in assay [1] is “H2 (α and β) and H4 (α and β) of D-glucosamine interact non-covalently with Mtb-UspCNt”. On to `N[C@H]1C(O)O[C@H](COP(=O)(O)O)[C@@H](O)[C@@H]1O` (stereo partly drawn) [D-glucosamine-6-phosphate], for which, in assay [2], the Kd amounted to 27.7 ± 6.4 mM.
